Experimental data reported in US11690387B2, “Methods and related compositions for manufacturing food and feed” (priority 2017, dated 2023).

What was measured:
Drosophila melanogaster [1] = assay: Larval mass assay: larval area on defined diet, axenic or mono-associated with one bacterium (Example 8); type: in vivo; conditions: after 13 days, 10-15 larvae per replicate, FIG. 3
From the text: For the experimental setup to measure the larval growth rate, defined diet was used (Piper et al., 2014, Nature Methods). Defined diet eliminates the effects of batch to batch variation in the ingredients used for the cornmeal based diet. In addition, the defined diet allows for the exclusion of individual components to test their effects on fly development.
To test whether the presence of bacteria producing amino acids can increase the body mass of developing larvae when raised on defined diet, we produced larvae that are axenic, and mono-associated with a single strain of bacterium. For these assays, three different bacteria were used, Corynebacterium glutamicum—a strain that produces glutamate, Corynebacterium glutamicum—a strain that produces methionine, and E. coli.
First, axenic embryos were generated. Fertilized embryos were collected from fruit flies over a 6 hour period on grape juice agar plates with yeast. To eliminate any bacterial contamination, the embryos were treated with 2% hypochlorite solution for five minutes and then washed thrice with sterile water. One volume of embryos was then suspended in 3 volumes of water.
The defined diet was aliquoted into vials and nine replicates were used for every condition being tested. […]
After 13 days, 10-15 randomly chosen larvae from each replicate were sampled, and their areas were measured, as a proxy to their biomass and weight. […]

fungi = conditions: cited from earlier work
target bacterial strains = conditions: against its target bacterial strains; cited from earlier work
Drosophila melanogaster [2] = assay: Development rate assay: time to adult emergence on diet seeded with Corynebacterium glutamicum (Example 8); type: in vivo; conditions: diet seeded with 10^9 CFUs of bacteria vs axenic/sterile diet; adults counted every 12 hours
Method: The media used to rear flies is cornmeal, molasses and yeast medium (11 g/l yeast, 54 g/l yellow cornmeal, 5 g/l agar, 66 ml/l molasses, and 4.8 ml/l propionic acid). All the components of the diet except propionic acid are heated together to 80° C. in deionized water with constant mixing for 30 minutes and let to cool to 60° C. Propionic acid is then mixed in and 50 ml of the diet is aliquoted into individual bottles and allowed to cool down and solidify. The flies are raised at 26° C., 16:8 hour light:dark cycle, at around 60% humidity.
On day one, 100 ul of a Corynebacterium glutamicum suspension in nutrient broth consisting of 10^9 colony forming units (CFUs) were added to five replicates of fly food. As controls, nutrient broth without the bacteria was added to five more bottles of fly food. Fertilized embryos collected from fruit flies were treated with 2% hypochlorite solution for five minutes and then washed with sterile water to remove any extracellular microbes from the embryos. 10 ul of the embryo suspension in water (one:three embryo:water suspension) was added to all the bacteria seeded and control fly food bottles. […] The time to adult emergence and the rate of emergence was measured in every replicate. From the time the first adult emerges from the pupa, the number of adult flies emerging was counted every 12 hours and rate of emergence was be computed.

Corynebacterium glutamicum [C. glu-Met]
larval body size (area of the larvae, proxy to biomass and weight) (Drosophila melanogaster [1]): largest body size on average

alirin B1
antifungal activities (fungi): have been shown to have antifungal activities

nisin
concentration showing antimicrobial activity (target bacterial strains): single-digit nanomolar concentration

botrycidin AJ1316
antifungal activities (fungi): have been shown to have antifungal activities

Corynebacterium glutamicum [C. glutamicum Glu]
time to reach adulthood from embryos (Drosophila melanogaster [2]): reach adulthood faster than their bacteria free counterparts
